Experimental data from paper PMC10959927, “Platinum iodido drugs show potential anti-tumor activity, affecting cancer cell metabolism and inducing ROS and senescence in gastrointestinal cancer cells” (Communications Biology, 2024).
Where “and” joins values, the source holds several entries; their conditions need not be identical. Identical values can stand only once.

Legend:
Assay type in all cases: cell-based, human
[1] = test system: MKN45 cells; test: Seahorse XF OCR, ECAR and energy map; design: Basal resp. / Maximal resp. / SRC: unit not given here; conditions: MKN45, IC50 24 h
Method: (§1) Oxygen Consumption Rate (OCR), Extra Cellular Acidification Rate (ECAR) and Energy map measurements. Cells were plated in XF HS Miniplates (Seahorse Bioscience) at a cellular density of 1 × 10^4 cells/well and incubated overnight. […] After an OCR baseline measurement, the minimum oxygen consumption was determined by adding 1.5 µM oligomycin (O) and the maximal respiration rate was assessed by adding 1 µM carbonyl cyanide p-trifluoro methoxyphenylhydrazone (FCCP, F). At the end of the experiment, the non-mitochondrial oxygen consumption was evaluated by adding both 0.5 µM rotenone (R) and antimycin (A). Experiments were run in a XF HS Mini analyzer (Seahorse Agilent), and raw data were normalized to total protein using a BCA protein assay kit (Cat. no. 23225, Thermo Scientific).

[2] = test system: PANC1 cells; test: Seahorse XF OCR, ECAR and energy map; design: Basal resp. / Maximal resp. / SRC: unit not given here
Method: as §1

[3] = test system: AGS cells; test: ATP determination assay (bioluminescence); conditions: replicates
Method: (§2) ATP determination assay. […] The analysis was performed using the ATP Bioluminescense Assay Kit CLS II (Cat. no. 11699695001, Roche) according to the manufacturer’s instructions. […] Data were normalized to total protein using the BCA protein assay kit (Thermo Scientific).

[4] = test system: MKN45 cells; test: ATP determination assay (bioluminescence); conditions: replicates
Method: as §2

[5] = test system: PANC1 cells; test: ATP determination assay (bioluminescence); conditions: replicates
Method: as §2

[6] = test system: AGS cells; test: Lactate production assay; conditions: replicates
Method: (§3) Lactate production assay. […] Proteins were removed from 50 μL of the medium by adding 100 μL of 8% Percloric Acid and 40% EtOH at 4 °C, and centrifuging at 2 × 10^4 g for 10 min at 4 °C. The supernatants were then frozen until the lactate in 15 μL of each sample, or lactate standard, was measured mixed with 150 μl of assay buffer (0.5 M glycine [pH 9.5], 0.2 M Hydrazine, 3.4 mM EDTA), 100 μl of H20, 5 μL of 1100 U/mL LDH (Roche) and 30 μL of 15 mM NAD + . NADH production was evaluated by measuring absorbance at 340 nm in a multiplate reader (Synergy HT, Biotek) and it was proportional to the lactic acid concentration in the sample after a 2 h incubation. The lactate concentration was normalized to the total amount of protein measured with the Micro BCA Protein Assay Kit (Thermo Scientific). Assays were performed in triplicate in three independent experiments.

[7] = test system: MKN45 cells; test: Lactate production assay; conditions: replicates
Method: as §3

[8] = test system: PANC1 cells; test: Lactate production assay; conditions: replicates
Method: as §3

[9] = test system: PANC1 cells; test: ROS detection by confocal microscopy (DHE, MitoSox); conditions: PANC1, 1 h treatment; H2O2 200 µM, CDDP 10 µM, I5 20 µM, I6 20 µM
Method: Tumor cells were seeded at a density of 3 × 10^5 cells in 15 µm 8-well IBIDI plates and incubated overnight. […] Subsequently, cells were stained with 10 μM of dihydroethidium (DHE, cytosolic O2^·- probe, Sigma-Aldrich) or with 5 μM of Mitosox (mitochondrial O2^·- probe, Sigma-Aldrich) for 15–30 min[79] and then visualized on a confocal microscope (Confocal LSM 710 Zeiss, Biomedical Research Institute Alberto Sols, IIBm-CSIC-UAM, Madrid, Spain). The image analysis was realized using the software program Image J.

CC(C)[NH][Pt@SP1]([I])([I])[NH]C(C)C [I6, cis-[PtI2(isopropylamine)2]]
OCR ([1]; time 53.68 min (I5) / 53.58 min (I6)): 193.975 pmoles/min/µg protein and 265.77 pmoles/min/µg protein and 274.483 pmoles/min/µg protein
OCR ([1]; time 60.27 min (I5) / 60.14 min (I6)): 39.9791 pmoles/min/µg protein and 45.1028 pmoles/min/µg protein and 42.2414 pmoles/min/µg protein
OCR ([1]; time 66.75 min (I5) / 66.62 min (I6)): 39.1246 pmoles/min/µg protein and 45.4375 pmoles/min/µg protein and 44.5027 pmoles/min/µg protein
OCR ([1]; time 73.23 min (I5) / 73.1 min (I6)): 38.1003 pmoles/min/µg protein and 46.0211 pmoles/min/µg protein and 46.1344 pmoles/min/µg protein
ECAR, Mean (energy map) ([2]; PANC1 (with I5)): 7.18 mpH/min/absorbance
OCR, Mean (energy map) ([2]; PANC1 (with I5)): 8.75 pmol/min/absorbance
ECAR (energy map) ([2]; PANC1 (with I6)): 32.52 mpH/min/absorbance
ECAR, Mean (energy map) ([2]; PANC1 (with I6)): 146.969 mpH/min/absorbance
OCR (energy map) ([2]; PANC1 (with I6)): 147 pmol/min/absorbance
OCR, Mean (energy map) ([2]; PANC1 (with I6)): 32.5207 pmol/min/absorbance
ATP-product. coupled resp. ([2]; PANC1, IC50 24 h): 76.46 and 74.62 and 73.2
Basal resp. ([2]; PANC1, IC50 24 h): 102.88 and 97.93 and 95.39
Maximal resp. ([2]; PANC1, IC50 24 h): 174.57 and 152.73 and 164.59
SRC ([2]; PANC1, IC50 24 h): 71.69 and 54.8 and 69.2
effect on ECAR ([2]; PANC1, IC50 24 h): no apparent effect
OCR ([2]; PANC1, IC50 24 h, time 1.53 min (I5) / 1.53 min (I6)): 159.562 pmoles/min/µg protein and 146.086 pmoles/min/µg protein and 145.09 pmoles/min/µg protein
OCR ([2]; PANC1, IC50 24 h, time 8.03 min (I5) / 8.01 min (I6)): 147.434 pmoles/min/µg protein and 135.357 pmoles/min/µg protein and 133.103 pmoles/min/µg protein
OCR ([2]; PANC1, IC50 24 h, time 14.5 min (I5) / 14.5 min (I6)): 143.038 pmoles/min/µg protein and 132.495 pmoles/min/µg protein and 129.978 pmoles/min/µg protein
OCR ([2]; PANC1, IC50 24 h, time 21.08 min (I5) / 21.07 min (I6)): 66.5745 pmoles/min/µg protein and 57.8765 pmoles/min/µg protein and 56.7739 pmoles/min/µg protein
OCR ([2]; PANC1, IC50 24 h, time 27.58 min (I5) / 27.55 min (I6)): 66.0035 pmoles/min/µg protein and 58.3571 pmoles/min/µg protein and 57.0179 pmoles/min/µg protein
OCR ([2]; PANC1, IC50 24 h, time 34.08 min (I5) / 34.04 min (I6)): 69.58 pmoles/min/µg protein and 62.2166 pmoles/min/µg protein and 61.4483 pmoles/min/µg protein
OCR ([2]; PANC1, IC50 24 h, time 40.66 min (I5) / 40.6 min (I6)): 214.725 pmoles/min/µg protein and 187.294 pmoles/min/µg protein and 199.178 pmoles/min/µg protein
OCR ([2]; PANC1, IC50 24 h, time 47.17 min (I5) / 47.09 min (I6)): 200.494 pmoles/min/µg protein and 175.489 pmoles/min/µg protein and 184.522 pmoles/min/µg protein
OCR ([2]; PANC1, IC50 24 h, time 53.68 min (I5) / 53.58 min (I6)): 196.779 pmoles/min/µg protein and 170.973 pmoles/min/µg protein and 177.854 pmoles/min/µg protein
OCR ([2]; PANC1, IC50 24 h, time 60.22 min (I5) / 60.14 min (I6)): 40.9467 pmoles/min/µg protein and 34.6667 pmoles/min/µg protein and 34.4666 pmoles/min/µg protein
OCR ([2]; PANC1, IC50 24 h, time 66.71 min (I5) / 66.63 min (I6)): 41.5272 pmoles/min/µg protein and 35.8152 pmoles/min/µg protein and 35.5577 pmoles/min/µg protein
OCR ([2]; PANC1, IC50 24 h, time 73.19 min (I5) / 73.15 min (I6)): 40.1567 pmoles/min/µg protein and 34.5626 pmoles/min/µg protein and 34.5904 pmoles/min/µg protein
ATP assay [3]: 0.001 nmoles ATP/mg prot and 0.003 nmoles ATP/mg prot and 0.01 nmoles ATP/mg prot and 0 nmoles ATP/mg prot and 0.005 nmoles ATP/mg prot and 0.002 nmoles ATP/mg prot
ATP assay [4]: 5246 nmoles ATP/mg prot and 3320.9 nmoles ATP/mg prot and 18883.3 nmoles ATP/mg prot and 23272 nmoles ATP/mg prot and 3325.73 nmoles ATP/mg prot and 3863.84 nmoles ATP/mg prot and 4434 nmoles ATP/mg prot and 3684.47 nmoles ATP/mg prot and 4201.47 nmoles ATP/mg prot
ATP assay [5]: 7880 nmoles ATP/mg prot and 13332.3 nmoles ATP/mg prot and 3956 nmoles ATP/mg prot and 3277.42 nmoles ATP/mg prot and 6180.37 nmoles ATP/mg prot and 5189.49 nmoles ATP/mg prot and 6520 nmoles ATP/mg prot and 7744.41 nmoles ATP/mg prot and 6743.81 nmoles ATP/mg prot
lactate assay [6]: 3.22 Lactate mM/mg prot and 1.52 Lactate mM/mg prot and 3.74 Lactate mM/mg prot and 3.2668 Lactate mM/mg prot and 2.67 Lactate mM/mg prot and 5.511 Lactate mM/mg prot and 0.01 Lactate mM/mg prot and 0.02 Lactate mM/mg prot and 0.03 Lactate mM/mg prot
lactate assay [7]: 3.98 Lactate mM/mg prot and 8.05 Lactate mM/mg prot and 7.53 Lactate mM/mg prot and 3.819 Lactate mM/mg prot and 1.91 Lactate mM/mg prot and 4.092 Lactate mM/mg prot and 2.56 Lactate mM/mg prot and 2.5 Lactate mM/mg prot and 2.54 Lactate mM/mg prot
lactate assay [8]: 11.33 Lactate mM/mg prot and 12.9 Lactate mM/mg prot and 10.14 Lactate mM/mg prot and 5.296 Lactate mM/mg prot and 5.829 Lactate mM/mg prot and 4.94 Lactate mM/mg prot and 4.32 Lactate mM/mg prot and 4.21 Lactate mM/mg prot and 4.26 Lactate mM/mg prot
DHE fluorescence intensity (per cell), cytosolic O2•− [9]: 98.4842 and 86.3637 and 85.797 and 82.1548 and 76.0203 and 75.3191
Mitosox fluorescence intensity (per cell), mitochondrial O2•− [9]: 91.9093 and 80.7891 and 70.3911 and 69.2294 and 66.6051 and 57.9644
